Where “and” joins values, the source holds several entries; their conditions need not be identical. Identical values can stand only once.
Target: SARS-CoV-2 NSP3 Mac1 (Severe acute respiratory syndrome coronavirus 2, UniProt P0DTD1)
Experiment: biochemical
Type: binding
Details: for Inhibition at top concentration of 125 µM (%) / IC50 in µM / inhibition at 125 µM / IC50: MIDAS hit compounds and analogues; for IC50 in µM / IC50: top concentration 125 µM, 8-point 1:1 dilution; for inhibition at 125 µM: read-out: Inhibition at top concentration of 125 µM (%); for NSP3 Mac1 inhibition at 50 µM (%) / inhibition at 50 µM: FDA-approved compound library primary screen, single shot; for IC50: read-out: IC50
[1] = MIDAS compound library primary screen, 25 µM
[2] = BioAscent virtual screening hit compounds, 25 µM, duplicate

SMILES: CCn1ncc2c(C(=O)N(Cc3ccccn3)C(C)C)cc(-c3ccccc3)nc21 [IAL-MD0109, CCN1N=CC=2C(=CC(=NC12)C=3C=CC=CC3)C(=O)N(CC=4C=CC=CN4)C(C)C]
- Inhibition at top concentration of 125 µM (%): Not measurable
- IC50 in µM (duplicate): Not measurable

SMILES: CC(C)n1ncc2c(C(=O)N3CCCC3)cc(-c3cccs3)nc21 [IAL-MD0083, CC(C)N1N=CC=2C(=CC(=NC12)C3=CC=CS3)C(=O)N4CCCC4]
- inhibition at 125 µM: 47.4%
- IC50 in µM (duplicate): Not measurable

SMILES: CO/N=C(\C(=O)N[C@@H]1C(=O)N2C(C(=O)[O-])=C(C[N+]3(C)CCCC3)CS[C@H]12)c1csc(N)n1.Cl [Cefepime hydrochloride, reference compound]
- NSP3 Mac1 inhibition at 50 µM (%): 42.1%

SMILES: Oc1c(Cl)cc(Cl)c(Cl)c1Cc1c(O)c(Cl)cc(Cl)c1Cl [Hexachlorophene, reference compound]
- inhibition at 50 µM: 85.5%

SMILES: CN(C)C(=O)c1ccc(-c2ccnc3c2ccn3C)nc1 [IAL-MD0140, O=C(N(C)C)C1=CN=C(C2=C3C(N(C)C=C3)=NC=C2)C=C1]
- Inhibition at top concentration of 125 µM (%): Not measurable due to compound precipitation
- IC50 (duplicate): 6.9 µM

SMILES: CN(C)C(=O)c1cncc(-c2ccnc3c2ccn3C)n1 [IAL-MD0135, O=C(C1=NC(C2=C3C(N(C)C=C3)=NC=C2)=CN=C1)N(C)C]
- inhibition at 125 µM: 18.3%
- IC50 in µM (duplicate): Not measurable

SMILES: CC(C)n1ncc2c(C(=O)N3CCNC(=O)C3(C)C)cc(-c3cccs3)nc21 [IAL-MD0075, CC(C)N1N=CC=2C(=CC(=NC12)C3=CC=CS3)C(=O)N4CCNC(=O)C4(C)C]
- inhibition at 125 µM: 30.9%
- IC50 in µM (duplicate): Not measurable

SMILES: COCCNC(=O)c1ccc(-c2ccnc3c2ccn3C)o1 [Compound 1, COCCNC(=O)c1ccc(o1)-c1ccnc2n(ccc12)C]
- inhibition at 25 µM [1]: 73%
- NSP3 Mac1 inhibition at 25 µM (%) (MIDAS compound library primary screen, 25 µM, listed as ARUK4007189-001-001, 25 µM): 73.1%

SMILES: O=C(O)CCCC[C@@H]1SC[C@@H]2NC(=O)N[C@@H]21 [Biotin, reference compound]
- NSP3 Mac1 inhibition at 50 µM (%): 107%
- inhibition at 50 µM: 108%

SMILES: CCNC(=O)c1ccc(-c2ccnc3c2ccn3C)o1 [IAL-MD0147, O=C(NCC)C1=CC=C(C2=C3C(N(C)C=C3)=NC=C2)O1]
- Inhibition at top concentration of 125 µM (%): Not measurable due to compound precipitation
- IC50 (duplicate): 6.8 µM

SMILES: O=c1c(O)c(-c2cccs2)oc2ccccc12 [BCC0111915, O=c1c(O)c(-c2cccs2)oc2ccccc12]
- inhibition at 25 µM [2]: 62.9%

SMILES: Nc1c(C(=O)NC2CC2)sc2nc(-c3ccccn3)ccc12 [IAL-MD0017, O=C(C1=C(N)C2=CC=C(C3=NC=CC=C3)N=C2S1)NC4CC4]
- inhibition at 25 µM [1]: 58.7%
- inhibition at 125 µM: 79.6%
- IC50 (duplicate): 12.6 µM

SMILES: CCCCCCCC/C=C\CCCCCCCC(=O)O.NCCO [Ethanolamine oleate, reference compound]
- NSP3 Mac1 inhibition at 50 µM (%): 56.1%

SMILES: CC(=O)OCC1=C(C(=O)O)N2C(=O)[C@@H](NC(=O)CCC[C@@H](N)C(=O)O)[C@H]2SC1 [Cephalosporin C sodium, reference compound]
- inhibition at 50 µM: 89.8%

SMILES: CCCN(CC(=O)Nc1ccccc1C)C(=O)c1cc(-c2cccs2)nc2c1cnn2CC [IAL-MD0093, CCCN(CC(=O)NC=1C=CC=CC1C)C(=O)C=2C=C(N=C3N(CC)N=CC23)C4=CC=CS4]
- inhibition at 125 µM: 7.7%
- IC50 in µM (duplicate): Not measurable

SMILES: CC(C)n1ncc2c(C(=O)N3CC(=O)Nc4ccccc43)cc(-c3cccs3)nc21 [IAL-MD0049, CC(C)N1N=CC=2C(=CC(=NC12)C3=CC=CS3)C(=O)N4CC(=O)NC=5C=CC=CC45]
- inhibition at 125 µM: 14.3%
- IC50 in µM (duplicate): Not measurable

SMILES: CNC(=O)c1ccc(C(=O)N2CCC(c3c[nH]c4ncccc34)CC2)cn1 [IAL-MD0115, CNC(=O)C=1C=CC(=CN1)C(=O)N2CCC(CC2)C3=CNC=4N=CC=CC34]
- inhibition at 125 µM: 9.3%
- IC50 in µM (duplicate): Not measurable

SMILES: COc1ccc(-c2cc(C(=O)O)c3c(C)cc(C)cc3n2)cc1 [IAL-MD0029, COC=1C=CC(=CC1)C=2C=C(C(=O)O)C=3C(C)=CC(C)=CC3N2]
- inhibition at 125 µM: 61.2%
- IC50 (duplicate): 76 µM and 75.9 µM

SMILES: CN(C)S(=O)(=O)c1ccc2nc(C(=O)O)n(O)c2c1 [BCC0019152, CN(C)S(=O)(=O)c1ccc2nc(C(=O)O)n(O)c2c1]
- inhibition at 25 µM [2]: 32.7%

SMILES: CC(=O)Nc1ccc(C=Cc2cc(C(=O)O)c3cc(C)ccc3n2)cc1 [IAL-MD0059, CC(=O)NC=1C=CC(C=CC=2C=C(C(=O)O)C=3C=C(C)C=CC3N2)=CC1]
- inhibition at 125 µM: 63%
- IC50 (duplicate): 22.8 µM

SMILES: COc1ccc(-c2cc(C(=O)Nc3cccc(OCC(N)=O)c3)c3ccccc3n2)cc1 [IAL-MD0034, COC=1C=CC(=CC1)C=2C=C(C(=O)NC=3C=CC=C(OCC(=O)N)C3)C=4C=CC=CC4N2]
- inhibition at 125 µM: 8.9%
- IC50 in µM (duplicate): Not measurable

Reference: publication PMC9965906, “Discovery and Development Strategies for SARS-CoV-2 NSP3 Macrodomain Inhibitors” (Pathogens, 2023)
